Patent publication US10123993B2, “Cyclic ureas as inhibitors of rock” (BRISTOL-MYERS SQUIBB COMPANY, priority 2015, dated 2018)

Molecular target: ROCK2 (Homo sapiens, UniProt O75116)
Assay: ROCK2 kinase inhibition assay (Caliper LABCHIP, FITC peptide substrate)
Assay type: biochemical
Settings: 5 μM ATP, 1.5 μM peptide substrate; value ranges
Procedure: The effectiveness of compounds of the present invention as ROCK inhibitors can be determined in a 30 μL assay containing 20 mM HEPES, pH 7.5, 20 mM MgCl2, 0.015% Brij-35, 4 mM DTT, 5 μM ATP and 1.5 μM peptide substrate (FITC-AHA-AKRRRLSSLRA-OH). Compounds were dissolved in DMSO so that the final concentration of DMSO was <2%, and the reaction was initiated with Rho kinase variants. After incubation, the reaction was terminated by the addition of EDTA and the phosphorylated and non-phosphorylated peptides separated using a LABCHIP® 3000 Reader (Caliper Life Sciences). […] Compounds were tested in dose-response format, and the inhibition of kinase activity was calculated at each concentration of compound. The inhibition data were fit using a curve-fitting program to determine the IC50; i.e., the concentration of compound required to inhibit 50% of kinase activity.
Representative Examples were tested in the ROCK2 assay described above and found having ROCK inhibitory activity.

Chain of ROCK2 (O75116 whole entry, species assumed): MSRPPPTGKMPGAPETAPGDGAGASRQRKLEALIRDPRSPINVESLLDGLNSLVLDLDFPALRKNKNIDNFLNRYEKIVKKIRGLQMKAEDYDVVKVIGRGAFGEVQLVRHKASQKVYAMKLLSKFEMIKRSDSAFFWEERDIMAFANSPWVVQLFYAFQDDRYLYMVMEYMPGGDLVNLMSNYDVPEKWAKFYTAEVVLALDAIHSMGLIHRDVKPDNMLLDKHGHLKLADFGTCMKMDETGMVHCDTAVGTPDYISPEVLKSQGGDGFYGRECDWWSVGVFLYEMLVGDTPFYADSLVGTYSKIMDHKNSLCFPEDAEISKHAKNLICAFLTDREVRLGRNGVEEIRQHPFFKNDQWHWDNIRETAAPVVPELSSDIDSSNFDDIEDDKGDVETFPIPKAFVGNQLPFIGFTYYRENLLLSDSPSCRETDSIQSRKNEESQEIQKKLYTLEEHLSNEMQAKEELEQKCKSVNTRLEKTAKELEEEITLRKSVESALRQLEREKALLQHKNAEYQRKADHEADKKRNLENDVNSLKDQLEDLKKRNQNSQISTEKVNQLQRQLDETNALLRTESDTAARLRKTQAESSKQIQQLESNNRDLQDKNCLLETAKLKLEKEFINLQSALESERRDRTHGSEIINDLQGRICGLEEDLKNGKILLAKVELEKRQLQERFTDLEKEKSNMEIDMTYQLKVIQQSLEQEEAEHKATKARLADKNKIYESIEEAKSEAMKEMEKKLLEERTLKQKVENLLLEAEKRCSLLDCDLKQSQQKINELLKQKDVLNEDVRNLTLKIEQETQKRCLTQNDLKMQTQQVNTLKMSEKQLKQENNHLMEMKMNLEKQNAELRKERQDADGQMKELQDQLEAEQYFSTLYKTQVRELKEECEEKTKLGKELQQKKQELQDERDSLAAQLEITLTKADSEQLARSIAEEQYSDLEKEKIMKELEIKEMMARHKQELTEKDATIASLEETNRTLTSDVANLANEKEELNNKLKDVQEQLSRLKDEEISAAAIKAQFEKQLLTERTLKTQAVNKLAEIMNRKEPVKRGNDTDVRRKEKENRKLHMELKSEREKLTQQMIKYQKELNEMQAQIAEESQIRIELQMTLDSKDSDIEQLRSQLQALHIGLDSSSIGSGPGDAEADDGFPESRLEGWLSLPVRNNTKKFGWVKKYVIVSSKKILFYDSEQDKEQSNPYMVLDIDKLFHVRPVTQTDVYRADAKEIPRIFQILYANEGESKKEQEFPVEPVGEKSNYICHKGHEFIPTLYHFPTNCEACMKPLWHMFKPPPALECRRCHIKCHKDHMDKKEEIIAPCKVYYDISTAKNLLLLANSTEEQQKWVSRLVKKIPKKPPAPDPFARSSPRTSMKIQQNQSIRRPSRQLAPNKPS

Structure (SMILES)	IC50 [nM]
COc1cccc(CN2C(=O)N(c3ccc(-c4cn[nH]c4)cc3)CC2CO)c1 (racemic) [Example 37, 1-(4-(1H-Pyrazol-4-yl)phenyl)-4-(hydroxymethyl)-3-(3-methoxybenzyl)imidazolidin-2-one]	< 2
COc1cccc(CN2C(=O)N(c3ccc(-c4cn[nH]c4)cc3)CC2C(C)(C)O)c1 (single isomer, unassigned) [Example 123, 1-(4-(1H-Pyrazol-4-yl)phenyl)-4-(2-hydroxypropan-2-yl)-3-(3-methoxybenzyl)imidazolidin-2-one]	< 2
COc1cccc(CN2C(=O)N(c3ccc(-c4cn[nH]c4)cc3)CC2C(C)(C)O)c1 (single isomer, unassigned) [Example 124, 1-(4-(1H-Pyrazol-4-yl)phenyl)-4-(2-hydroxypropan-2-yl)-3-(3-methoxybenzyl)imidazolidin-2-one]	< 2
COc1cccc(CN2CC(CO)N(c3ccc(-c4cn[nH]c4)cc3)C2=O)c1 (single isomer, unassigned) [Example 126, 3-(4-(1H-Pyrazol-4-yl)phenyl)-4-(hydroxymethyl)-1-(3-methoxybenzyl)imidazolidin-2-one]	20.1 to 200
COc1cccc(CN2CC(CO)N(c3ccc(-c4cn[nH]c4)cc3)C2=O)c1 (single isomer, unassigned) [Example 127, 3-(4-(1H-Pyrazol-4-yl)phenyl)-4-(hydroxymethyl)-1-(3-methoxybenzyl)imidazolidin-2-one]	< 2
COc1cc(CN2C(=O)N(c3ccc(-c4cn[nH]c4)cc3)C[C@@H]2CO)ccc1F (single isomer, unassigned) [Example 130]	2.1 to 20
COc1cc(CN2C(=O)N(c3ccc(-c4cn[nH]c4)cc3)C[C@H]2CO)ccc1F (single isomer, unassigned) [Example 131]	2.1 to 20
COc1cccc(C(C)N2C(=O)N(c3ccc(-c4cn[nH]c4)cc3)C[C@@H]2CO)c1 (single isomer, unassigned) [Example 132]	2.1 to 20
COc1cccc(C(C)N2C(=O)N(c3ccc(-c4cn[nH]c4)cc3)C[C@@H]2CO)c1 (single isomer, unassigned) [Example 133]	20.1 to 200
COc1cccc(CN2C(=O)N(c3ccc(-c4cn[nH]c4)c(OC)c3)CC2CO)c1 (single isomer, unassigned) [Example 134, 4-(hydroxy-methyl)-1-(3-methoxy-4-(1H-pyrazol-4-yl)phenyl)-3-(3-methoxy-benzyl) imidazolidin-2-one]	200 to 2000
COc1cccc(CN2C(=O)N(c3ccc(-c4cn[nH]c4)c(OC)c3)CC2CO)c1 (single isomer, unassigned) [Example 135, 4-(hydroxy-methyl)-1-(3-methoxy-4-(1H-pyrazol-4-yl)phenyl)-3-(3-methoxy-benzyl) imidazolidin-2-one]	200 to 2000
COc1cccc(C(C)N2C(=O)N(c3ccc(-c4cn[nH]c4)cc3)CC2(C)C)c1 (single isomer, unassigned) [Example 145, 1-(4-(1H-pyrazol-4-yl)phenyl)-3-(1-(3-methoxy-phenyl)-ethyl)-4,4-dimethyl-imidazolidin-2-one]	2.1 to 20
COc1cccc(C(C)N2C(=O)N(c3ccc(-c4cn[nH]c4)cc3)CC2(C)C)c1 (single isomer, unassigned) [Example 146, 1-(4-(1H-pyrazol-4-yl)phenyl)-3-(1-(3-methoxy-phenyl)-ethyl)-4,4-dimethyl-imidazolidin-2-one]	20.1 to 200
COc1cccc(C(CO)N2CCN(c3ccc(-c4cn[nH]c4)cc3)C2=O)c1 (single isomer, unassigned) [Example 154, 1-(4-(1H-Pyrazol-4-yl)phenyl)-3-(2-hydroxy-1-(3-methoxyphenyl)ethyl)imidazolidin-2-one]	20.1 to 200
COc1cccc(C(CO)N2CCN(c3ccc(-c4cn[nH]c4)cc3)C2=O)c1 (single isomer, unassigned) [Example 155, 1-(4-(1H-Pyrazol-4-yl)phenyl)-3-(2-hydroxy-1-(3-methoxyphenyl)ethyl)imidazolidin-2-one]	< 2
COCC(c1cccc(OC)c1)N1CCN(c2ccc(-c3cn[nH]c3)cc2)C1=O (single isomer, unassigned) [Example 156, 1-(4-(1H-Pyrazol-4-yl)phenyl)-3-(2-methoxy-1-(3-methoxyphenyl)ethyl)imidazolidin-2-one]	2.1 to 20
COCC(c1cccc(OC)c1)N1CCN(c2ccc(-c3cn[nH]c3)cc2)C1=O (single isomer, unassigned) [Example 157, 1-(4-(1H-Pyrazol-4-yl)phenyl)-3-(2-methoxy-1-(3-methoxyphenyl)ethyl)imidazolidin-2-one]	200 to 2000

Structure (SMILES)	IC50 [nM]
CCc1nc(N2CCN(C(CO)c3cccc(OC)c3)C2=O)ccc1-c1cn[nH]c1 (single isomer, unassigned) [Example 158, 1-(6-ethyl-5-(1H-pyrazol-4-yl)pyridin-2-yl)-3-(2-hydroxy-1-(3-methoxy-phenyl)ethyl) imidazolidin-2-one]	20.1 to 200
CCc1nc(N2CCN(C(CO)c3cccc(OC)c3)C2=O)ccc1-c1cn[nH]c1 (single isomer, unassigned) [Example 159, 1-(6-ethyl-5-(1H-pyrazol-4-yl)pyridin-2-yl)-3-(2-hydroxy-1-(3-methoxy-phenyl)ethyl) imidazolidin-2-one]	< 2
COc1cccc(C(CO)N2CCN(c3ccc(-c4cn[nH]c4)c(C)n3)C2=O)c1 (single isomer, unassigned) [Example 160, 1-(2-hydroxy-1-(3-methoxy-phenyl)ethyl)-3-(6-methyl-5-(1H-pyrazol-4-yl)pyridin-2-yl)imidazolidin-2-one]	20.1 to 200
COc1cccc(C(CO)N2CCN(c3ccc(-c4cn[nH]c4)c(C)n3)C2=O)c1 (single isomer, unassigned) [Example 161, 1-(2-hydroxy-1-(3-methoxy-phenyl)ethyl)-3-(6-methyl-5-(1H-pyrazol-4-yl)pyridin-2-yl)imidazolidin-2-one]	2.1 to 20
O=C1N(c2ccc(-c3cn[nH]c3)cc2)CCN1C(CO)c1ccccc1 (single isomer, unassigned) [Example 162, 1-(4-(1H-pyrazol-4-yl)phenyl)-3-(2-hydroxy-1-phenylethyl) imidazolidin-2-one]	200 to 2000
O=C1N(c2ccc(-c3cn[nH]c3)cc2)CCN1C(CO)c1ccccc1 (single isomer, unassigned) [Example 163, 1-(4-(1H-pyrazol-4-yl)phenyl)-3-(2-hydroxy-1-phenylethyl) imidazolidin-2-one]	2.1 to 20
COc1cccc(C(CO)N2CCN(c3ccc(-c4cn[nH]c4)c(C)c3)C2=O)c1 (single isomer, unassigned) [Example 164, 1-(2-hydroxy-1-(3-methoxy-phenyl)ethyl)-3-(3-methyl-4-(1H-pyrazol-4-yl)phenyl) imidazolidin-2-one]	200 to 2000
COc1cccc(C(CO)N2CCN(c3ccc(-c4cn[nH]c4)c(C)c3)C2=O)c1 (single isomer, unassigned) [Example 165, 1-(2-hydroxy-1-(3-methoxy-phenyl)ethyl)-3-(3-methyl-4-(1H-pyrazol-4-yl)phenyl) imidazolidin-2-one]	2.1 to 20
CCc1cc(N2CCN(C(CO)c3cccc(OC)c3)C2=O)ccc1-c1cn[nH]c1 (single isomer, unassigned) [Example 166, 1-(3-ethyl-4-(1H-pyrazol-4-yl)phenyl)-3-(2-hydroxy-1-(3-methoxy-phenyl)ethyl) imidazolidin-2-one]	2.1 to 20
CCc1nc(N2CCN(C(C)c3cccc(OC)c3)C2=O)ccc1-c1cn[nH]c1 (single isomer, unassigned) [Example 173, 1-(6-ethyl-5-(1H-pyrazol-4-yl)pyridin-2-yl)-3-(1-(3-methoxy-phenyl)ethyl) imidazolidin-2-one]	< 2
CCc1nc(N2CCN(C(C)c3cccc(OC)c3)C2=O)ccc1-c1cn[nH]c1 (single isomer, unassigned) [Example 174, 1-(6-ethyl-5-(1H-pyrazol-4-yl)pyridin-2-yl)-3-(1-(3-methoxy-phenyl)ethyl) imidazolidin-2-one]	200 to 2000
COc1cccc(C(C)N2CCN(c3ccc(-c4cn[nH]c4)c(C)n3)C2=O)c1 (single isomer, unassigned) [Example 181, 1-(1-(3-methoxy-phenyl)-ethyl)-3-(6-methyl-5-(1H-pyrazol-4-yl)pyridin-2-yl)-imidazolidin-2-one]	2.1 to 20
COc1cccc(C(C)N2CCN(c3ccc(-c4cn[nH]c4)c(C)n3)C2=O)c1 (single isomer, unassigned) [Example 182, 1-(1-(3-methoxy-phenyl)-ethyl)-3-(6-methyl-5-(1H-pyrazol-4-yl)pyridin-2-yl)-imidazolidin-2-one]	200 to 2000
CCc1nc(-n2ccn(C(C)c3cccc(OC)c3)c2=O)ccc1-c1cn[nH]c1 (single isomer, unassigned) [Example 183, 1-(6-ethyl-5-(1H-pyrazol-4-yl)pyridin-2-yl)-3-(1-(3-methoxy-phenyl)-ethyl)-1H-imidazol-2(3H)-one]	< 2
CCc1nc(-n2ccn(C(C)c3cccc(OC)c3)c2=O)ccc1-c1cn[nH]c1 (single isomer, unassigned) [Example 184, 1-(6-ethyl-5-(1H-pyrazol-4-yl)pyridin-2-yl)-3-(1-(3-methoxy-phenyl)-ethyl)-1H-imidazol-2(3H)-one]	200 to 2000
COc1cccc(C(C)n2ccn(-c3ccc(-c4cn[nH]c4)c(C)n3)c2=O)c1 (single isomer, unassigned) [Example 188, 1-(1-(3-methoxy-phenyl)ethyl)-3-(6-methyl-5-(1H-pyrazol-4-yl)pyridin-2-yl)-1H-imidazol-2(3H)-one]	< 2
